Test results from patent publication US20230287316A1, “INTER-ORGAN PLATFORM WITH TISSUE-SPECIFIC NICHES FOR A MICROPHYSIOLOGICAL SYSTEM ON A CHIP” (THE TRUSTEES OF COLUMBIA UNIVERSITY IN THE CITY OF NEW YORK, priority 2020, published 2023).
Where a name gives a salt, the structure may show the parent alone.

Experiments:
endothelial barrier = experiment: Endothelial barrier permeability response to thrombin; type: cell-based, human; settings: endothelialized mesh inserts under flow shear
Text: Vascularization The generation of a patient-specific vascular barrier is critical for functionally connecting tissue compartments while maintaining each tissues, as well as vascular perfusion, under optimal culture conditions resulting in phenotypic stability and maturation, analogous to the separation of interstitial and intravascular compartments in vivo. Transwell mesh inserts in each tissue chamber were coated with fibronectin and seeded with ECs and supporting MSCs with 2:1 ratio (FIG. 36). A stable endothelial barrier was then established by exposure to flow shear (ramped up from 1 to 5 dyn/cm^2 over 5 days of culture). To physiologically integrate engineered tumors and host tissues by vascular flow, the endothelialized membrane needs to separate the interstitial and intravascular spaces, enabling vasculature-mediated tissues crosstalk. […] Such response to an inflammatory agent is critical for metastatic extravasation of cancer cells. The endothelial barrier allowed optimization of culture conditions for each tissue - akin to compartmentalization in the body that avoids the use of “common” media. This approach promoted long term culture (4-12 weeks) of matured tissues, with on-line readouts (cell tracking, viability, function) in longitudinal and dynamic studies. […]

cardiac muscle = experiment: Drug distribution with functional matching in InterOrgan platform: cardiac beat frequency; type: cell-based, human; settings: 10 µM introduced into the reservoir at t = 0; assessed at 24 and 72 hours
[1] = system: human engineered cardiac tissue; experiment: Validation of engineered cardiac tissue with drugs of known cardiac effects: beat frequency; type: cell-based
Text: Levels were normalized first to β actin and subsequently to the tissue engineered bone control (mean ± s.d., n = 3). […] All scale bars: 100 µm.
The cardiac tissue model was generated from iPS-derived cardiomyocytes and fibroblasts encapsulated in fibrin hydrogel, as in our previous studies. The tissue was formed between two elastic pillars causing cell elongation and alignment, and subjected to electrical stimulation to synchronously contract and work against the pillars.
Specifically, linsitinib was dissolved at a 10 mM concentration in DMSO (Corning) and mixed in with the respective cell medium at a […] concentration unless otherwise noted. Vehicle treatments involved just the addition of DMSO at identical volumes as a control. Tissues were randomly assigned to experimental groups. Medium was changed every day.
To measure the cardiac contractility online, we took contractility videos of the tissues that were analyzed using the native MATLAB code we previously developed. Tissue contractility was measured by tracking the change in tissue area as a function of time. Acquired video frames were inverted and an automated intensity threshold was used to identify cell location in the video frame. First, a baseline time point in the video corresponding to a relaxed tissue state was selected. Absolute differences in cell area from the baseline frame were then calculated to create a time course of cell area changes over time. The resulting time courses were analyzed using a native MATLAB (MATHWorks) automated peak finding algorithm to determine locations of maximum cell contractions in the time profiles. Beat period lengths were determined from the length of time between the pairs of local maxima, and the beat frequencies were determined by inverting beat periods. The rate of proarrhythmic events was calculated by the ratio of the number of proarrhythmic events over the total number of beats.

[2] = FITC circulation in the platform (absorption and diffusive transport); type: physicochemical
Procedure: We also circulated fluorescent FITC, which has similar chemical properties as linsitinib including hydrophobicity and molecular weight, and measured its distribution across the 2 tissue chambers in the platform (FIG. 26F). The simulated and empirical results agreed: FITC also reached uniform concentration in all areas of the platform in within 12 hours, after reaching equilibrium across both models at approximately 6 hours. This is significant, since linsitinib is known to have a short half-life of approximately 5 hours. The delayed drug distribution by diffusion through tissues observed here has been documented as an issue for treating solid tumors in patients, with chemotherapeutic concentrations decreasing exponentially with distance from tumor blood vessels and often being limited to the peripheries of tumors even 12 hours after injection.
Fluorescein isothiocyanate (FITC, 10 mM in DMSO; Sigma Aldrich) was circulated for the integrated platform to determine potential hydrophobic small molecule absorption, given its physical and chemical properties. FITC was added at a concentration of 10 µM to 8 mL of 1:1 bone tumor/cardiac mixed media and introduced into the platform. The control was the FITC-containing media in a standard 24-multiwell plate (Corning). Aliquots from the reservoir, bone tumor, and cardiac tissue chambers were taken at 12, 24, 48 and 72 hours and measured for fluorescent signal using a spectrophotometer (Biotek).
Measurements of FITC concentrations were used to estimate the spread of linsitinib within the platform via diffusive circulating transport. Four independent platforms were filled with 8 mL of 1:1 mixed media each, after which 10 µM of FITC was injected into the reservoir. The platforms were connected to the peristaltic pumps run at 100 rpm to generate physiologically relevant fluid flow rate and shear stress. Aliquots were taken from the reservoir, bone and cardiac chambers at 0, 2, 4, 6, and 12 hours post injection, and assayed for fluorescence signal on a spectrophotometer (Biotek).

[3] = system: all tissues in the InterOrgan platform; experiment: Doxorubicin-induced toxicity in InterOrgan platform: viability and metabolism of all tissues; type: cell-based, human; settings: 30 µM Dox, 72 hours after exposure
Procedure: After the acute dose, each engineered tissue was assessed for cell viability, glucose consumption, and mitochondrial activity 72 hours after exposure (FIGS. 13D-F). Functional features for each engineered tissue 72 hours after acute exposure (n=3-5) are shown in FIGS. 13G-J. Over a thousand miRNAs from control and Dox-exposed cardiac tissues were differentially expressed under Isolated and InterOrgan conditions (FIG. 13K).
Treatment with 30 µM Dox, corresponding to the clinically administered cumulative dosage shown to induce cardiotoxicty, was delivered to tissues in the InterOrgan platform through the vascular channel and compared against the Isolated condition (FIG. 13A). […] We also detected decreased cardiac contractility and increased troponin release, both clinical measures of cardiac cell damage (FIG. 13G).
Metabolic Assays: Glucose, lactate, glutamate and glutamine were measured in parallel using the bioluminescent Glucose-Glo™ (Promega, cat. no. J6021), Lactate-Glo™ (Promega, cat. No. J5021), Glutamine/Glutamate-Glo™ (Promega, cat. no. J8021) and Glutamate-Glo™ (Promega, cat. no. J7021) assays according to the manufacturer’s protocols.

[4] = system: engineered cardiac tissues; experiment: Doxorubicin-induced toxicity: heart function assays; type: cell-based, human; settings: 30 µM Dox, 72 hours
Procedure: Heart function assays: Cardiac excitability, force, and beat rate were obtained using our previously established protocols. Cardiac troponin secretion was determined using the Human Cardiac Troponin I ELISA Kit (Abcam, ab200016) according to the manufacturer’s instructions.

Liver tissues = experiment: Doxorubicin-induced toxicity: liver function assays; type: cell-based, human; settings: 30 µM Dox, 72 hours
Procedure: Liver function assays: To assess liver function, […] and urea secretion using a Human ELISA kit (Bethyl, E88-129) and a Urea Nitrogen Test Kit (Fisher Scientific, SB-0580-250), respectively. Comparing these samples to the provided standard, concentrations of albumin and urea were calculated and compared to the secretion for each tissue at Day 0. Assays were performed according to the manufacturer’s instructions.

Bone tissues = experiment: Doxorubicin-induced toxicity: bone function assays; type: cell-based, human; settings: 30 µM Dox, 72 hours
Procedure: Bone function assays: To assess the bone’s ability to remodel its matrix, supernatant samples were analyzed for […], (TRAP, Kamiya Biomedical Company, KT-008) and bone sialoprotein (Human Bone Sialoprotein ELISA Kit, Mybiosource, cat. no. MBS261861) after 28 days of culture. These assays were performed according to the manufacturer’s instructions.

skin tissues = experiment: Doxorubicin-induced toxicity: skin functional assays; type: cell-based, human; settings: 30 µM Dox, 72 hours; both Isolated and InterOrgan cultures
Procedure: Skin functional assays: For drug-induced toxicity studies, electrical current was run through the tissues by placing electrodes on either side of the skin tissue and the change in resistance was subsequently measured and read as a function of the barrier. All tissues were analyzed using the same electrode holder setup to standardize the positions of electrodes with respect to the tissue. To analyze the transport of molecules through the skin barrier, Fluorescein (FITC, ThermoFisher, D3306) powder was added to the epidermis of skin tissues. After 3 hrs, 100 µl of supernatant from the dermal region below the skin tissue was sampled and assayed on a plate reader (BioTex Synergy HTX).

[5] = 10 µM injected into the reservoir
[6] = isoproterenol dose-response study

For thrombin, the barrier permeability (endothelial barrier) was “physiologic increase in barrier permeability”.
For `CNC[C@H](O)c1ccc(O)c(O)c1` [epinephrine], the “beat rate of cardiac muscle” value (cardiac muscle) was “increased”.
For `Cn1c(=O)c2c(ncn2C)n(C)c1=O` [caffeine], the beat frequency ([1]; caffeine 50 mM) was “physiologic increases in beat frequency”.
With Fluorescein isothiocyanate [FITC] the “absorption by the platform” value ([2]; 10 µM circulated for 72 hours, polysulfone platform compared to multi-well plates) was “without any measurable absorption by the platform”, the “time to equilibrium across both models” value [2, 5] was “approximately 6 hours” and the “time to uniform concentration in all areas of the platform” value [2, 5] was no more than 12 h.
For `CCCCc1oc2ccccc2c1C(=O)c1cc(I)c(OCCN(CC)CC)c(I)c1` [Amiodarone, amiodarone hydrochloride], the beat frequency ([1]; amiodarone 2.418 µM over 48 hours) was “expected decreases in the beat frequency”.
With `CC(C)NCC(O)c1ccc(O)c(O)c1` (stereo not shown) [isoproterenol, isoproterenol hydrochloride] the “EC50 (beat frequency)” value [1, 6] was “expected values of EC50” and the beat frequency [1, 6] was “increased”.
In the case of `COc1cccc2c1C(=O)c1c(O)c3c(c(O)c1C2=O)C[C@@](O)(C(=O)CO)C[C@@H]3O[C@H]1C[C@H](N)[C@H](O)[C@H](C)O1` [doxorubicin], the Cell viability [3] is reported as “significantly decreased”, the glucose consumption [3] is reported as “significantly decreased” and the mitochondrial activity [3] is reported as “significantly decreased”. For the same compound, the cardiac contractility [4] was “decreased”, the troponin release [4] was “increased” and the albumin (Liver tissues) was “decreased”. The urea production (Liver tissues) was “unaffected”, the TRAP responses (Bone tissues) was “stable” and the cellularity (Bone tissues) was “decreased”. For the same compound, the diffusional permeability (skin tissues) was “increased”, the electrical resistance (skin tissues) was “decreased” and the beat frequency ([1]; doxorubicin 1 µM over 72 hours) was “initially increased, and then decreased following prolonged exposure to the drug”.
In the case of `CN(CCOc1ccc(NS(C)(=O)=O)cc1)CCc1ccc(NS(C)(=O)=O)cc1` [dofetilide], the “beat rate of cardiac muscle” value (cardiac muscle) is reported as “decreased”.
